# Data as given in ChEMBL document CHEMBL1770141, “Quinolino-benzo-[5, 6]-dihydroisoquindolium compounds derived from berberine: a new class of highly selective ligands for G-quadruplex DNA in c-myc oncogene” (Eur J Med Chem, 2011).
# pIC50: −log10 of the molar value. Calls of active or inactive are those of the source. The rule behind the calls is not given here.
# Key:
# [1] = test system: Nucleic Acid; assay: Thermal stability of c-MYC FPu18T G-quadruplex DNA assessed as stabilization temperature at 2 uM by FRET assay; format: nucleic-acid assay
# [2] = test system: Nucleic Acid; assay: Thermal stability of F10T duplex DNA assessed as stabilization temperature at 2 uM by FRET assay; format: nucleic-acid assay
# [3] = test system: Nucleic Acid; assay: Inhibition of c-myc G-quadruplex formation in oligonucleotide Pu27 after 3 mins by PCR stop assay; format: nucleic-acid assay
# [4] = test system: HL-60; assay: Cytotoxicity against human HL60 cells after 48 hrs by MTT assay; format: functional, cell-based; conditions: HL-60, 48 h
# [5] = test system: ECV-304; assay: Cytotoxicity against human ECV304 cells after 48 hrs by MTT assay; format: functional, cell-based; conditions: ECV-304, 48 h
# [6] = Cytotoxicity against human GLC82 cells after 48 hrs by MTT assay; format: functional, cell-based; conditions: GLC82, 48 h
# [7] = test system: NCI-H460; assay: Cytotoxicity against human NCI-H460 cells after 48 hrs by MTT assay; format: functional, cell-based; conditions: NCI-H460, 48 h
# [8] = test system: HL-60; assay: Induction of growth phase arrest in human HL60 cells expressing c-myc gene at 0.5 uM after 16 days; format: functional, cell-based
# [9] = test system: ECV-304; assay: Induction of growth phase arrest in human ECV304 cells at 0.5 uM after 16 days; format: functional, cell-based
# [10] = test system: HL-60; assay: Inhibition of c-myc gene transcription in human HL60 cells assessed as c-myc mRNA level normalized to GAPDH mRNA level by RT-PCR; format: functional, cell-based
# [11] = test system: ECV-304; assay: Inhibition of c-myc gene transcription in human ECV304 cells assessed as c-myc mRNA level normalized to GAPDH mRNA level by RT-PCR; format: functional, cell-based
# [12] = test system: Nucleic Acid; assay: Thermal stability of c-MYC FPu18T G-quadruplex DNA assessed as stabilization temperature at 2 uM by FRET assay in presence of 10 uM duplex DNA competitor; format: nucleic-acid assay
# [13] = test system: Nucleic Acid; assay: Binding affinity to oligonucleotide Pu18 DNA assessed as induction of Pu18G-quadruplex DNA at 262 nm bandwidth by circula dichroism spectroscopy; format: nucleic-acid assay
# [14] = test system: Nucleic Acid; assay: Binding affinity to oligonucleotide Pu18 DNA assessed as induction of Pu18G-quadruplex DNA positive shift to at 262 nm bandwidth by circula dichroism spectroscopy; format: nucleic-acid assay
# [15] = test system: Nucleic Acid; assay: Binding affinity to oligonucleotide Pu18 DNA assessed as induction of Pu18G-quadruplex DNA negative peak at 240 nm bandwidth by circula dichroism spectroscopy; format: nucleic-acid assay
SMILES,ΔTm [1] [°C],ΔTm [2] [°C],pIC50 [3],pIC50 [4],pIC50 [5],pIC50 [6],pIC50 [7],Activity [8],Activity [9],inhibition [10],inhibition [11],ΔTm [12] [°C],Activity [13],Activity [14],Activity [15]
COc1ccc2cc3[n+](cc2c1NCCCCCCN)CCc1cc2c(cc1-3)OCO2,29,2,5.70,5.26,< 4.00,5.40,5.05,Active,Active,Active,Active,,,,
COc1ccc2cc3[n+](cc2c1OC)CCc1cc2c(cc1-3)OCO2,1,2,,,,,,,,,,,,,
COc1ccc2cc3[n+](cc2c1NCCN(C)C)CCc1cc2c(cc1-3)OCO2,19,0,5.41,4.42,< 4.00,4.44,4.25,,,,,,,,
COc1ccc2cc3[n+](c4c2c1N(CCCN(C)C)C=C4)CCc1cc2c(cc1-3)OCO2,25,0,5.52,5.10,< 4.00,5.30,5.05,,,,,24,,,
COc1ccc2cc3[n+](c4c2c1N(CCCN1CCOCC1)C=C4)CCc1cc2c(cc1-3)OCO2,23,0,5.37,4.90,< 4.00,4.52,4.44,,,,,23,,,
COc1ccc2cc3[n+](cc2c1NCCCN1CCOCC1)CCc1cc2c(cc1-3)OCO2,17,0,5.32,4.69,< 4.00,4.07,< 4.00,,,,,,,,
COc1ccc2cc3[n+](c4c2c1N(CCCCCCN)C=C4)CCc1cc2c(cc1-3)OCO2,29,0.5,5.72,5.70,< 4.00,5.00,4.89,Active,inactive,Active,inactive,27.5,Active,Active,Active
COc1ccc2cc3[n+](cc2c1NCCCN(C)C)CCc1cc2c(cc1-3)OCO2,20,1,5.48,4.56,< 4.00,4.54,4.19,,,,,,,,
COc1ccc2cc3[n+](c4c2c1N(CCN(C)C)C=C4)CCc1cc2c(cc1-3)OCO2,20,0,5.47,4.92,< 4.00,4.51,4.22,,,,,19.5,,,
